Legend:
PI3K (p110α) = PI3K (p110α) (Homo sapiens, UniProt P42336); test: In vitro enzyme activity assay, PI3K (p110α) kinase, Method I (HTRF); type: biochemical; parameters: recombinant full-length human PI3K p110α subunit; His-tag (N); host or cells: insect cells; details: 10 μM PI(4,5)P2 and 10 μM ATP), read-out: PI3K (p110α) enzyme activity_IC50
Method: PI3K (p110α) kinase activities of the compounds in all the examples of the present invention were tested via the following two methods, respectively.
Reaction buffer: HEPES 50 mM (pH7.0), NaN3 0.02%, BSA 0.01%. Orthovanadate 0.1 mM, and 1% DMSO.
Detection buffer: HEPES 10 mM (pH7.0), BSA 0.02%, KF 0.16 M, and EDTA 4 mM.
Enzymes for reaction: recombinant full-length human PI3K p110α subunit (molecular weight=128.4 kDa) with a His-tag at the N-terminus and unlabeled p85α subunit (molecular weight=83.6 kDa), which were expressed in insect cells.
Substrate for reaction: […] PIP2 substrate (PI(4,5)P2).
Reaction conditions: 10 μM PI(4,5)P2 and 10 μM ATP.
1. preparing the substrate in the freshly prepared reaction buffer;
(§1) 2. adding the kinase into the substrate reaction solution, and mixing gently;
3. transferring the compound dissolved in 100% DMSO into the kinase reaction solution by using Acoustic technique (Echo550; nanoliter rang), and incubating at room temperature for 10 minutes;
4. adding an appropriate concentration of ATP into the reaction system,
5. incubating at 30° C. for half an hour;
6. terminating the reaction by adding a stop solution;
7. adding the detection buffer and incubating overnight; and
8. detecting by using homogeneous time-resolved fluorescence (HTRF) method (excitation wavelength of 320 nm, measuring the ratio of the emission wavelength readings at 615 nm and 665 nm).

MCF-7 cells = test: In vitro cell activity assay (MCF-7, insulin stimulation, ELISA-One); type: cell-based; details: Homo sapiens, MCF7, compound 2 hours in serum-free media, then 10 μg/ml insulin 30 min
Method: Experimental Steps and Method Comprise:
1. MCF-7 cells were seeded at 2,5000 cells per well in a 96 well tissue culture plate in a complete media containing 10%0/FBS.
3. The cells were treated with 10 μg/ml insulin in serum-free media for 30 min.
4. During waiting period, lysis solution was prepared as below:
a) Enhancer Solution needs to be taken out from the refrigerator to be thawed.
b) Concentrated lysis solution was prepared by diluting Enhancer Solution 10-fold in 5× Lysis Buffer.
c) Lysis solution was prepared by diluting concentrated lysis solution 5-fold with ddH2O.
5. Any media were removed from wells and the wells were rinsed with PBS once quickly.
6. 50 μL of freshly prepared lysis solution were added into each well, with shaking at room temperature for 10 min.
7. After confirming that all cells get detached from wells, the lysis solution together with the cell debris was transferred to 1.5 ml tubes.
8. The tubes were vortexed several times to thoroughly mix the lysis solution and cells, and then, and then the mixture was centrifuged at 12,000 g for 10 min at 4° C.;
9. The desired number of ELISA-One microplate strips was determined. Unused strips were removed from frame and returned to storage pouch and seal. Wells for use in the assay were rinsed with 200 μL ddH2O to remove preservatives prior to use.
10. 50 μL of antibody mixture solution was added into each well. (Antibody mixture solution was prepared by mixing capture antibody reagent and detection antibody reagent equally, avoid vortexing)
11. 25 μL of lysate was added into each well of the ELISA-One microplate. The microplate was covered with adhesive seal and incubated for 1 hour at room temperature on a microplate shaker.
12. Each well was washed with 150 μL 1× wash buffer 3 times. After final wash, any remaining wash buffer was removed from wells. If necessary, leave microplate in 1× Wash Buffer for up to 30 min, until substrate mixture solution has been prepared.
13. The substrate mixture solution should be prepared when used, 100 μL of substrate mixture solution was added into each well, and then the microplate was sealed with tin foil and incubated at room temperature for 10 minutes on a microplate shaker.
14. 10 μL of stop solution was added into each well, and then mixed slightly (5-10 seconds) on a microplate shaker.
15. Corresponding ELISA-One filter set was installed to read the fluorescence signal intensity.

mTOR = target: T1, mTOR (Homo sapiens, UniProt P42345); test: In vitro enzyme activity assay, mTOR kinase (32P-ATP, P81 filter-binding); type: biochemical; details: 4EBPI substrate, 10 μM ATP; read-out: mTOR enzyme activity_IC50
T1 construct: recombinant human mTOR fragment (amino acid 1360-2549, molecular weight=163.9 kDa); GST-tag (N); host or cells: insect cells
Method: mTOR kinase activities of the compounds in all the examples of the present invention were tested via the following method.
Reaction buffer: 20 mM Hepes (pH 7.5), 10 mM MgCl2, 2 mM MnCl2, 1 mM EGTA, 0.02% Brij35, 0.02 mg/mL BSA, 0.1 mM Na3VO4, 2 mM DTT, and 2% DMSO.
Enzyme for reaction: recombinant human mTOR fragment (amino acid 1360-2549, molecular weight=163.9 kDa) with a GST-tag at the N-terminus, which was expressed in insect cells.
Substrate for reaction: recombinant full-length human 4EBPI (molecular weight=13.6 kDa) with a His-tag at the N-terminus, which was expressed in bacteria.
Reaction conditions: […] 4EBPI and 10 μM ATP.
1. adding the reaction substrate and other reaction factors into the freshly prepared reaction buffer;
as §1
3. transferring the compound dissolved in 100% DMSO into the kinase reaction solution by using Acoustic technique (Echo550; nanoliter rang), and incubating at room temperature for 20 minutes;
4. adding an appropriate concentration of ^32P-ATP into the reaction system;
5. incubating at room temperature for 2 hours;
6. detecting the kinase activity by using P81 filter-binding method.

T1 sequence (P42345 1360-2549): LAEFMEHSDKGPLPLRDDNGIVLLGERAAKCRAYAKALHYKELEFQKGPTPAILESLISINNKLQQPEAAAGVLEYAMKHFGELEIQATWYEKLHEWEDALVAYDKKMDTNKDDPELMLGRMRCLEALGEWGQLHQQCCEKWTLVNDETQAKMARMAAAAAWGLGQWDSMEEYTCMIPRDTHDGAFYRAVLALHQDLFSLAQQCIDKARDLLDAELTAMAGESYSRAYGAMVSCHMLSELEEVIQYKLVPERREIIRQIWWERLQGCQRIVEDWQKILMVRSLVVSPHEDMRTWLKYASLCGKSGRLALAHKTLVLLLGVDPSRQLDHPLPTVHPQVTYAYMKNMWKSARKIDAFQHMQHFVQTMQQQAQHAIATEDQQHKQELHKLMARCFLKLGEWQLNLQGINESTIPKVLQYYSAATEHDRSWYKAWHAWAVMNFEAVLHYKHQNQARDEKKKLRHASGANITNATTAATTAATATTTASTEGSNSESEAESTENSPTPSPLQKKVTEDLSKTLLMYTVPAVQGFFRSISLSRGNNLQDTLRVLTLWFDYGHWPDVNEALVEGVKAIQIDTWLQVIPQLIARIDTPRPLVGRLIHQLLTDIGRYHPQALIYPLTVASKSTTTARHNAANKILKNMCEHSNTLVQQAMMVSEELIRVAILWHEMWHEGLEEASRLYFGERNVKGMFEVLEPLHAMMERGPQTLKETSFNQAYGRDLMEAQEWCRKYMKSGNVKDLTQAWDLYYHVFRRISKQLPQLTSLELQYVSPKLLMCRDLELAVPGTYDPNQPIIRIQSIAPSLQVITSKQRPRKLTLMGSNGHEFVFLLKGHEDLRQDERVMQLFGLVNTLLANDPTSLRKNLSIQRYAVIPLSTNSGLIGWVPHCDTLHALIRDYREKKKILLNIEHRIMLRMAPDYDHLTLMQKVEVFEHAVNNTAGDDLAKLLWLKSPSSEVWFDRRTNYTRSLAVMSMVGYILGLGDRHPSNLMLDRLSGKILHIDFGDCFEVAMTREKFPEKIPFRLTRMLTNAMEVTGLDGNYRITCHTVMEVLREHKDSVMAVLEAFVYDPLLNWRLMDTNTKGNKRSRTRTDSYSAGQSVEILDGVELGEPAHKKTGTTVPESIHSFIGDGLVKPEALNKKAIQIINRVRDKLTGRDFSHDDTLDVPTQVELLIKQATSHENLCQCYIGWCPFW
Chain of PI3K (p110α) (P42336 whole entry): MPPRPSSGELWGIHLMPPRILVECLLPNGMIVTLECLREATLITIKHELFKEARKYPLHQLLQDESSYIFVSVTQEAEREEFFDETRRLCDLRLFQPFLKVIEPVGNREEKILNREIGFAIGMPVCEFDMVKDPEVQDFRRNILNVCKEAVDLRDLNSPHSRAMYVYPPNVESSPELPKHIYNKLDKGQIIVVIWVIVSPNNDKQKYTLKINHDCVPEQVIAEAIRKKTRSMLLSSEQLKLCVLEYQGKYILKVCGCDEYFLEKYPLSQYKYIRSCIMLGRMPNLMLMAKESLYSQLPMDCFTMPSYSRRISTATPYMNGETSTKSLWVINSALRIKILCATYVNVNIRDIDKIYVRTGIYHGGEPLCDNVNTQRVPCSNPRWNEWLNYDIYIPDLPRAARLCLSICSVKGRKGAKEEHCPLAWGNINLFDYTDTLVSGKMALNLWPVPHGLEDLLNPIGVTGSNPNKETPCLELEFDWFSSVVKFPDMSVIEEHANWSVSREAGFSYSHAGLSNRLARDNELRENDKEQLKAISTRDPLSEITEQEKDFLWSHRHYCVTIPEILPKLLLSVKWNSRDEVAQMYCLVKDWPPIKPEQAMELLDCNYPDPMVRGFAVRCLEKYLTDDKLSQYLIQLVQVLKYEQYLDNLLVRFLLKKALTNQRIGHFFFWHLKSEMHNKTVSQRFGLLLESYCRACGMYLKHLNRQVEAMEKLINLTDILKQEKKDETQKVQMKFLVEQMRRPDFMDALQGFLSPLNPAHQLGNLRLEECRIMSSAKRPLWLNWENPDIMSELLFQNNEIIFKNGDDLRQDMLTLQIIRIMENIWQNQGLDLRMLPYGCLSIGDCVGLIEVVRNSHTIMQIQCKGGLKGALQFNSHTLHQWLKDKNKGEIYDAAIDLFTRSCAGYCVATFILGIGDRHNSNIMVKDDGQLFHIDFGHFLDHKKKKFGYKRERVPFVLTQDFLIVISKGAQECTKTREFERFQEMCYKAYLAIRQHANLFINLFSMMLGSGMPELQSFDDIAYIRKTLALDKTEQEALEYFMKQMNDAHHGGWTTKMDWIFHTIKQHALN
Chain of PI3K (p110α) (P27986 whole entry partner): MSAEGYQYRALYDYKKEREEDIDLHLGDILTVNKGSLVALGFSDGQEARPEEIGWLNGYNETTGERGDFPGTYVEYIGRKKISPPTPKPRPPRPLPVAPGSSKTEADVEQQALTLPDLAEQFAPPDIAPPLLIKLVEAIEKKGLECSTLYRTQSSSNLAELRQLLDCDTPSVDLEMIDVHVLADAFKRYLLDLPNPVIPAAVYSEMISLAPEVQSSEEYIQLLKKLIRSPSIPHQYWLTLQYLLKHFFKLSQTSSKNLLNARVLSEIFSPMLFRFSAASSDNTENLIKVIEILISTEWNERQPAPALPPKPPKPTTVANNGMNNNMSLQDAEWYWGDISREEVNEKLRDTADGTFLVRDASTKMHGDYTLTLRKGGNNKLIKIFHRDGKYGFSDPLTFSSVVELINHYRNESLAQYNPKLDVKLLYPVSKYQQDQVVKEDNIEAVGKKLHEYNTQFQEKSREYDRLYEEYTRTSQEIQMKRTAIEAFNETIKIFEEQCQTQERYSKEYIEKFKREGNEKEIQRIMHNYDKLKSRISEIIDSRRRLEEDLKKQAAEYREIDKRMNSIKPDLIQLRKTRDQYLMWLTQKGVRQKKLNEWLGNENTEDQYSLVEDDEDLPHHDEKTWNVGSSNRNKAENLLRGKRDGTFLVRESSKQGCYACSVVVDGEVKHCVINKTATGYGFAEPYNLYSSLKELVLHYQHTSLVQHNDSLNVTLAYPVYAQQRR

| Compound | IC50 (PI3K (p110α)) | IC50 (MCF-7 cells) | IC50 (mTOR) |
| --- | --- | --- | --- |
| COc1ncc(-c2ccc3ncc(OCCN4CCOCC4)c(=O)n3c2)cc1NS(=O)(=O)c1sc(N)nc1C [Compound 16] | ≤ 1 nM | 100 to 250 nM | 50 to 200 nM |
| COc1ncc(-c2ccc3ncc(OCCN4CCNCC4)c(=O)n3c2)cc1NS(=O)(=O)c1sc(C)nc1C [Compound 3] | ≤ 1 nM | > 250 nM | > 200 nM |
| COc1ncc(-c2ccc3ncc(OCCN4CCOCC4)c(=O)n3c2)cc1NS(=O)(=O)c1sc(C)nc1C [Compound 15] | ≤ 1 nM | ≤ 50 nM | 50 to 200 nM |
| COc1ncc(-c2ccc3ncc(OCCN4CCOCC4)c(=O)n3c2)cc1NS(=O)(=O)c1ccc(F)cc1C [Compound 8] | ≤ 1 nM | 50 to 100 nM | > 200 nM |
| Cc1nc(C)c(S(=O)(=O)Nc2cc(-c3ccc4ncc(OCCN5CCOCC5)c(=O)n4c3)cnc2N)s1 [Compound 12] | ≤ 1 nM | > 250 nM | 50 to 200 nM |
| COc1ncc(-c2ccc3ncc(OCCN4CCOCC4)c(=O)n3c2)cc1NS(=O)(=O)c1ccc(C)cc1C [Compound 7, 2,4-Dimethyl-N-(2-methoxy-5-(3-(2-morpholinoethoxy)-4-oxo-4H-pyrido[1,2-a]pyrimidin-4-one-7-yl)pyridin-3-yl)benzenesulfonamide] | ≤ 1 nM | ≤ 50 nM | > 200 nM |
| COc1ncc(-c2ccc3ncc(OCCN4CCCC4)c(=O)n3c2)cc1NS(=O)(=O)c1ccc(F)cc1F [Compound 42] | ≤ 1 nM | 100 to 250 nM | > 200 nM |
| COc1ncc(-c2ccc3ncc(OCCN4CCOCC4)c(=O)n3c2)cc1NS(=O)(=O)c1ccc(Cl)s1 [Compound 14] | ≤ 1 nM | ≤ 50 nM | > 200 nM |
| COc1ncc(-c2ccc3ncc(OCCn4cccn4)c(=O)n3c2)cc1NS(=O)(=O)c1ccc(F)cc1F [Compound 37, 2,4-Difluoro-N-(2-methoxy-5-(4-oxo-3-(2-pyrazol-1-yl-ethoxy)pyrido[1,2-a]pyrimidin-7-yl)pyridin-3-yl)benzenesulfonamide] | ≤ 1 nM | 100 to 250 nM | 50 to 200 nM |
| COc1ncc(-c2ccc3ncc(OCCN4CCC(F)CC4)c(=O)n3c2)cc1NS(=O)(=O)c1sc(C)nc1C [Compound 2] | ≤ 1 nM | ≤ 50 nM | 50 to 200 nM |
| COc1ncc(-c2ccc3ncc(OCCN4CCOCC4)c(=O)n3c2)cc1NS(=O)(=O)c1ccc(F)cc1Cl [Compound 11] | ≤ 1 nM | ≤ 50 nM | > 200 nM |
| COc1ncc(-c2ccc3ncc(OCCN4CCOCC4)c(=O)n3c2)cc1NS(=O)(=O)c1ccc(F)cc1F [Compound 13] | ≤ 1 nM | – | > 200 nM |
| COc1ncc(-c2ccc3ncc(OCCN4CCOCC4)c(=O)n3c2)cc1NS(=O)(=O)c1ccccc1Cl [Compound 10] | ≤ 1 nM | 50 to 100 nM | > 200 nM |
| COc1ncc(-c2ccc3ncc(OC4CCNC4)c(=O)n3c2)cc1NS(=O)(=O)c1ccc(F)cc1F (centres unmarked) [Compound 44] | ≤ 1 nM | – | > 200 nM |
| COc1ncc(-c2ccc3ncc(OCCN4CCOCC4)c(=O)n3c2)cc1NS(=O)(=O)c1ccccc1F [Compound 9] | ≤ 1 nM | 100 to 250 nM | > 200 nM |
| COc1ncc(-c2ccc3ncc(OCCN(C)C)c(=O)n3c2)cc1NS(=O)(=O)c1sc(C)nc1C [Compound 35] | ≤ 1 nM | ≤ 50 nM | 50 to 200 nM |
| CNCCOc1cnc2ccc(-c3cnc(OC)c(NS(=O)(=O)c4sc(C)nc4C)c3)cn2c1=O [Compound 6] | ≤ 1 nM | – | > 200 nM |
| COc1ncc(-c2ccc3ncc(OCCN(C)C)c(=O)n3c2)cc1NS(=O)(=O)c1ccc(F)cc1F [Compound 43] | ≤ 1 nM | 50 to 100 nM | > 200 nM |
| COc1ncc(-c2ccc3ncc(OC4CCNCC4)c(=O)n3c2)cc1NS(=O)(=O)c1ccc(F)cc1F [Compound 41, 2,4-Difluoro-N-(2-methoxy-5-(4-oxo-3-(piperidin-4-yloxy)-4H-pyrido[1,2-a]pyrimidin-7-yl)pyridin-3-yl)benzenesulfonamide] | 1 to 50 nM | – | > 200 nM |
| COc1ncc(-c2ccc3ncc(OCCN4CCC(F)(F)CC4)c(=O)n3c2)cc1NS(=O)(=O)c1sc(C)nc1C [Compound 1, N-(5-(3-(2-(4,4-difluoro-1-piperidinyl)ethoxy)-4-oxo-pyrido[1,2-a]pyrimidin-7-yl]-2-methoxypyridin-3-yl]-2,4-dimethylthiazole-5-sulfonamide] | ≤ 1 nM | ≤ 50 nM | 50 to 200 nM |
| COc1ncc(-c2ccc3ncc(OCCN(C)C)c(=O)n3c2)cc1NS(=O)(=O)c1sccc1C [Compound 36] | ≤ 1 nM | ≤ 50 nM | > 200 nM |

Source: US9856256B2, “Pyridino[1,2-A]pyrimidone analogue used as P13K inhibitor” (CHIA TAI TIANQING PHARMACEUTICAL GROUP CO., LTD., priority 2014, dated 2018)
